Source: US20210009549A1, “CANNABINOID DERIVATIVES AND CONJUGATES AND USES THEREOF” ([…] LTD., priority 2018, published 2021)

What was measured:
[1] = tested on: presynaptic GlyR; settings: brainstem and spinal cord of hyperekplexic mutant mice; cited from earlier work
[2] = molecular target: T1, human α3 GlyR (Homo sapiens, UniProt O75311); assay: Whole-cell patch clamp, modulation of α3 GlyR-regulated ion channel currents; type: cell-based; settings: for A3 GlyR (fold increase): HEK293 cells stably expressing human α3 GlyR, EC2 glycine (80 μM), holding potential −40 mV, room temperature
T1 construct: expressed in transfected cells
T1 sequence (O75311 34-464): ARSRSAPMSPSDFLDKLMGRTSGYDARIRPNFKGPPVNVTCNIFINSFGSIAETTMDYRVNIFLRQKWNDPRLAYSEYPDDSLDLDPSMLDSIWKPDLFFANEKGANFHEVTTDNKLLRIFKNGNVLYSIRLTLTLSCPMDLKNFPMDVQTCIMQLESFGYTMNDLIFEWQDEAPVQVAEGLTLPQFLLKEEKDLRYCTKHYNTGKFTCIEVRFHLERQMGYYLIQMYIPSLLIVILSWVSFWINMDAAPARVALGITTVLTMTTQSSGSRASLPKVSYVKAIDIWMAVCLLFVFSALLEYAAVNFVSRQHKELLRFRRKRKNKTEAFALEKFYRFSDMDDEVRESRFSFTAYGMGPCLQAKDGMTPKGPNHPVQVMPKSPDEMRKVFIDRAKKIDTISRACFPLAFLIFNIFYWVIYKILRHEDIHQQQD
Experimental: (§1) Currents were recorded by whole-cell patch clamp on HEK293 cells that stably expressed either the human α1 or α3 GlyRs. Cells were cultured on glass coverslips and placed into the recording chamber which was perfused by the standard extracellular solution containing (in mM): 140 NaCl, 5 KCl, 2 CaCl2), 1 MgCl2, 10 HEPES/NaOH and 10 glucose (pH 7.4 adjusted with NaOH). For HEK293 cell recordings we employed an intracellular solution consisting of (mM): 145 CsCl, 2 CaCl2), 2 MgCl2, 10 HEPES and 10 EGTA (pH 7.4 adjusted with CsOH; osmolarity 290 mOsm). HEK293 cell recordings were performed at a holding potential of −40 mV. Solutions were applied to cells via gravity induced perfusion via parallel microtubules under micromanipulator control with a solution exchange time of <250 ms. Experiments were conducted at room temperature (20-22° C.). Due to the irreversible nature of the drug actions, only one cell was tested per coverslip.
(§2) Patch pipettes were fabricated from borosilicate hematocrit tubing (Hirschmann Laborgerate, Eberstadt, Germany) and heat polished. Pipettes had tip resistances of […]. Membrane currents were recorded using an Axopatch 200B amplifier and a Digidata 1440 analog-to-digital converter under control of pClamp10 software (Molecular Devices). Currents were filtered at 500 Hz and digitized at 2 KHz.
(§3) After a stable whole cell recording was obtained, EC2 and saturating glycine concentrations activated currents with the anticipated magnitudes were verified. At al and α3 GlyRs, EC2 current magnitudes generally required glycine concentrations of 1 and 80 μM, respectively. The saturating concentration was invariably 2 mM. The standard experimental protocol involved EC2 glycine application for […] every 1 minute. When glycine was not being applied, the cells were continually and directly exposed to flowing drug solution. After 5 minutes of alternate applications of drug and EC2 glycine, 2 mM glycine was briefly applied every 2 minutes. Regular applications of saturating glycine after the 5 minute time point tended to enhance the drug-induced current magnitude effect further.
(§4) The effects of cannabinoid derivatives on al GlyR and α3 GlyR-regulated ion channel currents, as assessed by the patch clamp method, are indicated in Table 6.

[3] = rodents; systemic and intrathecal administration; cited from earlier work
[4] = molecular target: T2, human α1 GlyR (Homo sapiens, UniProt P23415); assay: Whole-cell patch clamp, modulation of α1 GlyR-regulated ion channel currents; type: cell-based; settings: HEK293 cells stably expressing human α1 GlyR; EC2 glycine (1 μM); holding potential −40 mV; room temperature
T2 construct: expressed in transfected cells
T2 sequence (P23415 29-457): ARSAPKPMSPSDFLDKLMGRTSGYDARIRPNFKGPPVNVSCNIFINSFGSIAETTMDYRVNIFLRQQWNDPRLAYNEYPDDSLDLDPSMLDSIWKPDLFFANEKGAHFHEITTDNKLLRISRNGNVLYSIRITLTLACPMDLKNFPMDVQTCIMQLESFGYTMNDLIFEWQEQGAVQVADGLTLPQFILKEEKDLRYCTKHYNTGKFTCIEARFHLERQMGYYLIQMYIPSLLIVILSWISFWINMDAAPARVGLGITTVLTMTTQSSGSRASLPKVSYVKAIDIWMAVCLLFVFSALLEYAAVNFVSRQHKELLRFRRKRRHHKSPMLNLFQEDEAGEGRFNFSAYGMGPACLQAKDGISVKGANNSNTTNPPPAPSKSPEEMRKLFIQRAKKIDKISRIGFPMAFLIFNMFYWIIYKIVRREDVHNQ
Experimental: as §1, §2, §3, §4

[5] = tested on: hippocampal neurons; settings: cited from earlier work

Molecule | A3 GlyR (fold increase) [2] | α1 GlyR (fold increase) [4] | further results
C=C(C)[C@@H]1CCC(C)=C[C@H]1c1ccc(CCCCC)cc1O [desoxy-CBD, dehydroxylcannabidiol] | 4.6 fold | 26.7 fold | Rescue of impaired presynaptic GlyR activity and diminished glycine release [1]: selectively rescues impaired presynaptic GlyR activity and diminished glycine release; Analgesic tolerance [3]: without causing apparent analgesic tolerance; Suppression of chronic inflammatory and neuropathic pain [3]: significantly suppresses chronic inflammatory and neuropathic pain
CCCCCc1ccc2c(c1)OC(C)(C)C1CCC(C)=CC21 (stereo not drawn) [desoxy-THC] | 4.7 fold | 11.2 fold | 
CCCCCCC(C)(C)c1ccc2c(c1)OC(C)(C)C1CCC(C)=CC21 (stereo not drawn) [Compound 148, 1,1-DMH-desoxy THC] | 4 fold | 4.2 fold | 
C=C(C)C1CCC(C)=CC1c1ccc(C(C)C(C)CCCCC)cc1O (stereo not drawn) [Compound 102, 1,2-dimethylheptyl-desoxy CBD] | 18 fold | no effect | Selectivity α3 GlyR versus α1 GlyR ([2]; comparison of patch clamp effects on α1 and α3 GlyR): highly selective towards α3 GlyR
C=C(C)[C@@H]1CCC(C)=C[C@H]1c1c(O)cc(CCCCC)cc1O [CBD, cannabidiol] |  |  | Analgesic tolerance [3]: without causing apparent analgesic tolerance; Suppression of chronic inflammatory and neuropathic pain [3]: significantly suppresses chronic inflammatory and neuropathic pain
7-OH-Desoxy-CBD [Compound 119] |  | no effect | 
C=C(C)C1CCC(C)=CC1c1ccc(C(C)(C)CCC)cc1O (stereo not drawn) [Compound 103, 1,1-dimethylbutyl desoxy CBD] | 10 fold | 4 fold | 
C=C(C)C1CCC(C)=CC1c1ccc(C(C)(C)CCCCCC)cc1O (stereo not drawn) [Compound 101, 1,1-dimethylheptyl desoxy CBD] | 5 fold | 13 fold | 
C=C(C)[C@@H]1CCC(C)=C[C@H]1c1c(O)cc(CC2CN(C(C)=O)C2)cc1O [KLS-13019] |  |  | Potency relative to CBD ([5]; more potent than CBD): 50 fold; Safety relative to CBD ([5]; safer than CBD): > 400 fold
